# Measured values from US7342000B2, “Semisynthetic macrolide antibiotics of the azalide series” (GlaxoSmithKline istrazivacki center Zagreb, priority 2002, dated 2008).
# Experiments:
# Test in all cases: MIC by broth dilution (NCCLS M7-A2)
# Type in all cases: cell-based
# Details in all cases: 90% growth inhibition
# S. aureus ATCC 13709 = tested on: S. aureus ATCC 13709
# Description: (§1) MIC levels for all compound were determinated on panel of susceptible, and resistant Gram positive bacterial strains (S. aureus, S. pneumoniae and S. pyogenes) and on Gram negative strains (E. coli, H. influenzae, […], M. catarrhalis).
# H. influenzae ATCC 49247 = tested on: H. influenzae ATCC 49247
# Description: as §1
# E. faecalis ATCC 29212 = tested on: E. faecalis ATCC 29212
# Description: as §1
# S. pneumoniae = tested on: S. pneumoniae
# Description: as §1
# S. pyogenes iMLS = tested on: S. pyogenes iMLS
# Description: as §1
# S. pyogenes = tested on: S. pyogenes
# Description: as §1
# E. coli ATCC 25922 = tested on: E. coli ATCC 25922
# Description: as §1
# S. pyogenes M = tested on: S. pyogenes M
# Description: as §1
# [1] = tested on: M. catarrhalis ATCC 23246
# Description: as §1
Molecule,MIK (S. aureus ATCC 13709) [µg/mL],MIK (H. influenzae ATCC 49247) [µg/mL],MIK (E. faecalis ATCC 29212) [µg/mL],MIK (S. pneumoniae),MIK (S. pyogenes iMLS) [µg/mL],MIK (S. pyogenes),MIK (E. coli ATCC 25922) [µg/mL],MIK (S. pyogenes M) [µg/mL],MIK [1] [µg/mL]
"CC[C@H]1OC(=O)[C@H](C)[C@@H](O[C@H]2C[C@@](C)(OC)[C@@H](O)[C@H](C)O2)[C@H](C)[C@@H](O[C@@H]2O[C@H](C)C[C@H](N(C)C)[C@H]2O)[C@](C)(O)C[C@@H](C)CN(CCCNC(=O)NCc2ccccc2)[C@H](C)[C@@H](O)[C@]1(C)O [Example 3, 9-Deoxo-9-dihydro-9a-N-(N′-benzylcarbamoyl-γ-aminopropyl)-9a-aza-9a-homoerithromycin A]",0.5,2,16,≦0.125 μg/ml,4,≦0.125 μg/ml,16,8,1
CC[C@H]1OC(=O)[C@H](C)[C@@H](O[C@H]2C[C@@](C)(OC)[C@@H](O)[C@H](C)O2)[C@H](C)[C@@H](O[C@@H]2O[C@H](C)C[C@H](N(C)C)[C@H]2O)[C@](C)(O)C[C@@H](C)CN(CCCNC(=O)NC(C)c2cccc3ccccc23)[C@H](C)[C@@H](O)[C@]1(C)O (stereo partly drawn) [Example 10],16,2,16,8 µg/mL,8,≦0.125 μg/ml,64,16,4
"CC[C@H]1OC(=O)[C@H](C)[C@@H](O[C@H]2C[C@@](C)(OC)[C@@H](O)[C@H](C)O2)[C@H](C)[C@@H](O[C@@H]2O[C@H](C)C[C@H](N(C)C)[C@H]2O)[C@](C)(O)C[C@@H](C)CN(CCCNC(=O)Nc2ccccc2C(F)(F)F)[C@H](C)[C@@H](O)[C@]1(C)O [Example 6, 9-Deoxo-9-dihydro-9a-N-[N′-(2-trifluoromethyl)phenylcarbamoyl-γ-aminopropyl]-9a-aza-9a-homoerithromycin A]",2,16,64,≦0.125 μg/ml,8,≦0.125 μg/ml,32,32,8
"CCC1OC(=O)C(C)C(OC2CC(C)(OC)C(O)C(C)O2)C(C)C(OC2OC(C)CC(N(C)C)C2O)C(C)(O)CC(C)CN(CCCNC(=S)N(CCC#N)Cc2ccccc2)C(C)C(O)C1(C)O (stereo not drawn) [Example 30, 9-Deoxo-9-dihydro-9a-N-[N′-(β-cyanoethyl)-N′-benzylthiocarbamoyl-γ-aminopropyl]-9a-aza-9a-homoerithromycin A]",1,2,8,≦0.125 μg/ml,2,≦0.125 μg/ml,16,4,1
"CC[C@H]1OC(=O)[C@H](C)[C@@H](O[C@H]2C[C@@](C)(OC)[C@@H](O)[C@H](C)O2)[C@H](C)[C@@H](O[C@@H]2O[C@H](C)C[C@H](N(C)C)[C@H]2O)[C@](C)(O)C[C@@H](C)CN(CCCNC(=O)N(CCC#N)c2ccc3ccccc3c2)[C@H](C)[C@@H](O)[C@]1(C)O [Example 38, 9-Deoxo-9-dihydro-9a-N-[N′-(β-cyanoethyl)-N′-(2-naphtyl)carbamoyl-γ-aminopropyl]-9a-aza-9a-homoerithromycin A]",1,2,8,≦0.125 μg/ml,2,≦0.125 μg/ml,32,8,0.5
"CC[C@H]1OC(=O)[C@H](C)[C@@H](O[C@H]2C[C@@](C)(OC)[C@@H](O)[C@H](C)O2)[C@H](C)[C@@H](O[C@@H]2O[C@H](C)C[C@H](N(C)C)[C@H]2O)[C@](C)(O)C[C@@H](C)CN(CCCNC(=O)NCCc2ccccc2)[C@H](C)[C@@H](O)[C@]1(C)O [Example 8, 9-Deoxo-9-dihydro-9a-N-[N′-(β-phenylethyl)carbamoyl-γ-aminopropyl]-9a-aza-9a-homoerithromycin A]",1,2,16,≦0.125 μg/ml,4,≦0.125 μg/ml,32,8,1
9-Deoxo-9-dihydro-9a-N-[N′-(β-cyanoethyl)-N′-isopropylcarbamoyl-γ-aminopropyl]-9a-aza-9a-homorithromycin A [Example 27],4,32,32,≦0.125 μg/ml,8,≦0.125 μg/ml,16,32,0.5
"CC[C@H]1OC(=O)[C@H](C)[C@@H](O[C@H]2C[C@@](C)(OC)[C@@H](O)[C@H](C)O2)[C@H](C)[C@@H](O[C@@H]2O[C@H](C)C[C@H](N(C)C)[C@H]2O)[C@](C)(O)C[C@@H](C)CN(CCCNC(=O)N(CCC#N)CCCc2ccccc2)[C@H](C)[C@@H](O)[C@]1(C)O [Example 33, 9-Deoxo-9-dihydro-9a-N-[N′-(β-cyanoethyl)-N′-(3-phenylpropyl)carbamoyl-γ-aminopropyl]-9a-aza-9a-homoerithromycin A]",1,2,16,≦0.125 μg/ml,4,≦0.125 μg/ml,16,8,1
"CCOC(=O)CNC(=O)NCCCN1CC(C)CC(C)(O)C(OC2OC(C)CC(N(C)C)C2O)C(C)C(OC2CC(C)(OC)C(O)C(C)O2)C(C)C(=O)OC(CC)C(C)(O)C(O)C1C (stereo not drawn) [Example 9, 9-Deoxo-9-dihydro-9a-N-(N′-ethoxycarbonylmethylcarbamoyl-γ-aminopropyl)-9a-aza-9a-homoerithromycin A]",8,32,>64,≦0.125 μg/ml,16,≦0.125 μg/ml,>64,64,4
"CC[C@H]1OC(=O)[C@H](C)[C@@H](O[C@H]2C[C@@](C)(OC)[C@@H](O)[C@H](C)O2)[C@H](C)[C@@H](O[C@@H]2O[C@H](C)C[C@H](N(C)C)[C@H]2O)[C@](C)(O)C[C@@H](C)C(=O)[C@H](C)[C@@H](O)[C@]1(C)O [Er, erythromycin A, reference compound]",–,2,1,–,>64,0.25 µg/mL,32,8,–
"CC[C@H]1OC(=O)[C@H](C)[C@@H](O[C@H]2C[C@@](C)(OC)[C@@H](O)[C@H](C)O2)[C@H](C)[C@@H](O[C@@H]2O[C@H](C)C[C@H](N(C)C)[C@H]2O)[C@](C)(O)C[C@@H](C)CN(CCCNC(=O)Nc2cc(OC)c(OC)c(OC)c2)[C@H](C)[C@@H](O)[C@]1(C)O [Example 11, 9-Deoxo-9-dihydro-9a-N-[N′-(3,4,5-trimethoxyphenyl)carbamoyl-γ-aminopropyl]-9a-aza-9a-homoerithromycin A]",4,16,>64,≦0.125 μg/ml,32,≦0.125 μg/ml,>64,64,16
CC[C@H]1OC(=O)[C@H](C)[C@@H](O[C@H]2C[C@@](C)(OC)[C@@H](O)[C@H](C)O2)[C@H](C)[C@@H](O[C@@H]2O[C@H](C)C[C@H](N(C)C)[C@H]2O)[C@](C)(O)C[C@@H](C)CN(CCCNC(=S)Nc2cccc3ccccc23)[C@H](C)[C@@H](O)[C@]1(C)O [Example 5],2,2,4,≦0.125 μg/ml,4,≦0.125 μg/ml,8,4,2
"CC[C@H]1OC(=O)[C@H](C)[C@@H](O[C@H]2C[C@@](C)(OC)[C@@H](O)[C@H](C)O2)[C@H](C)[C@@H](O[C@@H]2O[C@H](C)C[C@H](N(C)C)[C@H]2O)[C@](C)(O)C[C@@H](C)CN(CCCNC(=S)NCCCc2ccccc2)[C@H](C)[C@@H](O)[C@]1(C)O [Example 7, 9-Deoxo-9-dihydro-9a-N-[N′-(3-phenylpropyl)thiocarbamoyl-γ-aminopropyl]-9a-aza-9a-homoerithromycin A]",1,2,16,≦0.125 μg/ml,4,≦0.125 μg/ml,16,8,1
9-Deoxo-9-dihydro-9a-N-[N′-(β-cyanoethyl)-N′-benzylcarbamoyl-γ-aminopropyl]-9a-aza-9a-homoerithromycin A [Example 29],2,32,>64,≦0.125 μg/ml,16,≦0.125 μg/ml,>64,64,4
